Assay results published in patent publication US20250144077A1, “DOSAGE REGIMEN FOR THROMBOPOIETIN RECEPTOR AGONIST” (JIANGSU HENGRUI PHARMACEUTICALS CO., LTD., priority 2022, published 2025).
Where two headings read alike, the source gives them in different places.

Tests used:
plasma protein = test: Plasma protein binding rate of herombopag in subjects with hepatic impairments; assay type: in vitro ADME, human
[1] = Single-dose, open-label pharmacokinetics of herombopag in subjects with normal liver function, mild and moderate hepatic impairments; assay type: in vivo, human; settings: for AUC0-t GLSM Ratio / AUC0-∞ GLSM Ratio / Cmax GLSM Ratio: ANOVA
Protocol: Example 1: Study of Pharmacokinetics and Safety of Trial Drug in Subjects with Mild Hepatic Impairments (Child-Pugh: Grade A), Moderate Hepatic Impairments (Child-Pugh: Grade B), and Normal Liver Function
Trial drug: tablets of herombopag diethanolamine salt, produced and provided by Jiangsu Hengrui, strengths: 2.5 mg/tablet and 5 mg/tablet.
This study is a single-dose, open-label trial designed to evaluate the pharmacokinetics of herombopag in subjects with normal liver function, mild hepatic impairments, and moderate hepatic impairments.
The severity of the hepatic functional impairments in the subjects was assessed using the Child-Pugh score (mild: grade A, a score of 5 or 6; moderate: grade B, a score of 7-9).
(§1) All the subjects in each group underwent PK, PD, and safety index collection following the administration of the study drug on D1 according to the trial process chart, and comparative analysis was then performed between groups.
PK blood sampling time points: Venous blood samples of about 4 mL were collected from each subject within the 1 h prior to administration and at 0.5, 1, 2, 4, 6, 7, 8, 10, 12, 24, 48, 72, 96, and 120 h after administration. Blood sampling time windows: within the 60 min prior to administration; ±2 min for the 0.5 h-2 h after administration; ±5 min for the 4 h-12 h; ±15 min for the 24 h-120 h after administration.
(§2) Prior to the day-1 administration (D-1), the subjects were required to fast for 10 h or more, though water intake was not prohibited. The following morning (D1), the subjects orally took, on an empty stomach, a 7.5 mg dose of herombopag diethanolamine tablets (comprised of one 2.5 mg tablet and one 5 mg tablet) with about 240 mL of warm water. Water intake was prohibited 1 h before and after the administration. The subjects had lunch about 4 h after the administration and had dinner about 10 h after the administration. The subjects were advised to remain seated within the 2 h after the administration and to avoid strenuous exercise and prolonged bed rest.
Pharmacokinetic parameters of herombopag, including Tmax, Cmax, AUC0-t, AUC0-∞, t1/2, V/F, and CL/F, were calculated according to the actual sampling time points using a non-compartmental model (NCA) on Phoenix WinNonlin 8.1.

[2] = Safety and adverse events after single 7.5 mg oral dose (CTCAE5.0 grading); assay type: in vivo, human
Protocol: as §1, §2
In this study, a total of 24 subjects were included, and all of them were included in a safety analysis set.
In this study, all drug-related AEs were graded according to CTCAE5.0. […] The adverse reactions mainly occurred in the hepatic impairment groups, and the incidence of adverse reactions in the moderate hepatic impairment group was relatively high, which may be attributed to the fact that these subjects had pre-existing liver diseases of varying degrees of severity and most of them already had abnormal baseline laboratory test results. These subjects recovered from all the adverse events without intervention.

platelet counts = test: PD: platelet counts after administration compared to baseline; assay type: in vivo, human; settings: all the groups; single 7.5 mg oral dose
Protocol: as §1

[3] = Moderate vs. Normal (moderate/normal)
[4] = mild hepatic impairments compared with normal liver function
[5] = moderate hepatic impairments compared with normal liver function
[6] = single 7.5 mg oral dose, fasted, mild hepatic impairment (n = 8), GeoMean (% CVb)
[7] = single 7.5 mg oral dose, fasted, moderate hepatic impairment (n = 8), GeoMean (% CVb)
[8] = single 7.5 mg oral dose, fasted, normal liver function group (n = 8), GeoMean (% CVb)
[9] = moderate hepatic impairment group, 5 subjects

effect of hepatic impairments on plasma protein binding rate (plasma protein): did not significantly affect
AUC0-t GLSM Ratio ([1]; Mild vs. Normal (mild/normal)): 121.73%
AUC0-∞ GLSM Ratio ([1]; Mild vs. Normal (mild/normal)): 120.16%
Cmax GLSM Ratio ([1]; Mild vs. Normal (mild/normal)): 170.39%
AUC0-t GLSM Ratio [1, 3]: 171.21%
AUC0-∞ GLSM Ratio [1, 3]: 173.06%
Cmax GLSM Ratio [1, 3]: 204.72%
median time to peak, hepatic impairment groups versus normal liver function group ([1]; human, in vivo): smaller median time to peak
AUC(0-t) ([1]; human, plasma, oral, 7.5 mg, geometric least squares mean, mild hepatic impairment group, n 8, read-out: AUC0-t GLSM): 1060 ng·h/mL
AUC(0-inf) ([1]; human, plasma, oral, 7.5 mg, geometric least squares mean, mild hepatic impairment group, n 8, read-out: AUC0-∞ GLSM): 1120 ng·h/mL
Cmax ([1]; human, plasma, oral, 7.5 mg, geometric least squares mean, mild hepatic impairment group, n 8, read-out: Cmax GLSM): 62.6 ng/mL
AUC(0-t) ([1]; human, plasma, oral, 7.5 mg, geometric least squares mean, moderate hepatic impairment group, n 8, read-out: AUC0-t GLSM): 1500 ng·h/mL
AUC(0-inf) ([1]; human, plasma, oral, 7.5 mg, geometric least squares mean, moderate hepatic impairment group, n 8, read-out: AUC0-∞ GLSM): 1610 ng·h/mL
Cmax ([1]; human, plasma, oral, 7.5 mg, geometric least squares mean, moderate hepatic impairment group, n 8, read-out: Cmax GLSM): 75.3 ng/mL
AUC(0-t) ([1]; human, plasma, oral, 7.5 mg, geometric least squares mean, normal liver function group, n 8, read-out: AUC0-t GLSM): 874 ng·h/mL
AUC(0-inf) ([1]; human, plasma, oral, 7.5 mg, geometric least squares mean, normal liver function group, n 8, read-out: AUC0-∞ GLSM): 929 ng·h/mL
Cmax ([1]; human, plasma, oral, 7.5 mg, geometric least squares mean, normal liver function group, n 8, read-out: Cmax GLSM): 36.8 ng/mL
half-life ([1]; human, plasma, po, 7.5 mg, single 7.5 mg oral dose, empty stomach, mild hepatic impairments (Child-Pugh: grade A), read-out: arithmetic mean of t1/2 (converted)): 32.3 h
AUC(0-t) ([1]; human, plasma, po, 7.5 mg, single 7.5 mg oral dose, empty stomach, mild hepatic impairments (Child-Pugh: grade A), read-out: geometric mean of AUC0-t): 1060 ng·h/mL
AUC(0-inf) ([1]; human, plasma, po, 7.5 mg, single 7.5 mg oral dose, empty stomach, mild hepatic impairments (Child-Pugh: grade A), read-out: geometric mean of AUC0-∞): 1120 ng·h/mL
Tmax ([1]; human, plasma, po, 7.5 mg, single 7.5 mg oral dose, empty stomach, mild hepatic impairments (Child-Pugh: grade A), read-out: median of Tmax): 2 h
half-life ([1]; human, plasma, po, 7.5 mg, single 7.5 mg oral dose, empty stomach, moderate hepatic impairments (Child-Pugh: grade B), read-out: arithmetic mean of t1/2 (converted)): 36.3 h
AUC(0-t) ([1]; human, plasma, po, 7.5 mg, single 7.5 mg oral dose, empty stomach, moderate hepatic impairments (Child-Pugh: grade B), read-out: geometric mean of AUC0-t): 1580 ng·h/mL
AUC(0-inf) ([1]; human, plasma, po, 7.5 mg, single 7.5 mg oral dose, empty stomach, moderate hepatic impairments (Child-Pugh: grade B), read-out: geometric mean of AUC0-∞): 1660 ng·h/mL
Tmax ([1]; human, plasma, po, 7.5 mg, single 7.5 mg oral dose, empty stomach, moderate hepatic impairments (Child-Pugh: grade B), read-out: median of Tmax): 2 h
half-life ([1]; human, plasma, po, 7.5 mg, single 7.5 mg oral dose, empty stomach, normal liver function, read-out: arithmetic mean of t1/2 (converted)): 34.6 h
AUC(0-t) ([1]; human, plasma, po, 7.5 mg, single 7.5 mg oral dose, empty stomach, normal liver function, read-out: geometric mean of AUC0-t): 874 ng·h/mL
AUC(0-inf) ([1]; human, plasma, po, 7.5 mg, single 7.5 mg oral dose, empty stomach, normal liver function, read-out: geometric mean of AUC0-∞): 929 ng·h/mL
Tmax ([1]; human, plasma, po, 7.5 mg, single 7.5 mg oral dose, empty stomach, normal liver function, read-out: median of Tmax): 8 h
AUC(0-t) ([1]; human, plasma, po, 7.5 mg, single 7.5 mg oral dose, fasted, mild hepatic impairment (n = 8), GeoMean (% CVb), read-out: AUC0-t): 1060 ng·h/mL
AUC(0-inf) ([1]; human, plasma, po, 7.5 mg, single 7.5 mg oral dose, fasted, mild hepatic impairment (n = 8), GeoMean (% CVb), read-out: AUC0-∞): 1120 ng·h/mL
Cmax ([1]; human, plasma, po, 7.5 mg, single 7.5 mg oral dose, fasted, mild hepatic impairment (n = 8), GeoMean (% CVb), read-out: Cmax): 62.4 ng/mL
half-life ([1]; human, plasma, po, 7.5 mg, single 7.5 mg oral dose, fasted, mild hepatic impairment (n = 8), Mean ± SD, read-out: t1/2 (converted)): 32.2 ± 7.28 h
Tmax ([1]; human, plasma, po, 7.5 mg, single 7.5 mg oral dose, fasted, mild hepatic impairment (n = 8), Median (Min-Max), read-out: Tmax): 2 h
AUC(0-t) ([1]; human, plasma, po, 7.5 mg, single 7.5 mg oral dose, fasted, moderate hepatic impairment (n = 8), GeoMean (% CVb), read-out: AUC0-t): 1580 ng·h/mL
AUC(0-inf) ([1]; human, plasma, po, 7.5 mg, single 7.5 mg oral dose, fasted, moderate hepatic impairment (n = 8), GeoMean (% CVb), read-out: AUC0-∞): 1660 ng·h/mL
Cmax ([1]; human, plasma, po, 7.5 mg, single 7.5 mg oral dose, fasted, moderate hepatic impairment (n = 8), GeoMean (% CVb), read-out: Cmax): 82.8 ng/mL
half-life ([1]; human, plasma, po, 7.5 mg, single 7.5 mg oral dose, fasted, moderate hepatic impairment (n = 8), Mean ± SD, read-out: t1/2 (converted)): 36.3 ± 11.9 h
Tmax ([1]; human, plasma, po, 7.5 mg, single 7.5 mg oral dose, fasted, moderate hepatic impairment (n = 8), Median (Min-Max), read-out: Tmax): 2 h
AUC(0-t) ([1]; human, plasma, po, 7.5 mg, single 7.5 mg oral dose, fasted, normal liver function group (n = 8), GeoMean (% CVb), read-out: AUC0-t): 874 ng·h/mL
AUC(0-inf) ([1]; human, plasma, po, 7.5 mg, single 7.5 mg oral dose, fasted, normal liver function group (n = 8), GeoMean (% CVb), read-out: AUC0-∞): 929 ng·h/mL
Cmax ([1]; human, plasma, po, 7.5 mg, single 7.5 mg oral dose, fasted, normal liver function group (n = 8), GeoMean (% CVb), read-out: Cmax): 36.8 ng/mL
half-life ([1]; human, plasma, po, 7.5 mg, single 7.5 mg oral dose, fasted, normal liver function group (n = 8), Mean ± SD, read-out: t1/2 (converted)): 34.6 ± 11.9 h
Tmax ([1]; human, plasma, po, 7.5 mg, single 7.5 mg oral dose, fasted, normal liver function group (n = 8), Median (Min-Max), read-out: Tmax): 8 h
AUC0-t increase [1, 4]: 21.73%
AUC0-∞ increase [1, 4]: 20.16%
Cmax increase [1, 4]: 70.39%
AUC0-t increase [1, 5]: 71.21%
AUC0-∞ increase [1, 5]: 73.06%
Cmax increase [1, 5]: 104.72%
half-lives compared between groups ([1]; normal, mild and moderate hepatic impairment groups): substantially identical half-lives
CL/F [1, 6]: 6.72(41.5) L/h
Cmax [1, 6]: 62.6(42.2) ng/mL
V/F [1, 6]: 304(45.6) L
CL/F [1, 7]: 4.66(58.8) L/h
V/F [1, 7]: 233(69.7) L
CL/F [1, 8]: 8.07(101.6) L/h
V/F [1, 8]: 372(60.3) L
SMILES: CC1=NN(c2ccc3c(c2)CCCC3)C(=O)/C1=N\Nc1cccc(-c2ccc(C(=O)O)o2)c1O [herombopag, (Z)-5-(2-hydroxy-3-(2-(3-methyl-5-oxo-1-(5,6,7,8-tetrahydronaphthalen-2-yl)-1H-pyrazol-4(5H)-ylidene)hydrazino)phenyl)furan-2-carboxylic acid]
incidence of AEs related to the study drug ([2]; all 24 subjects, 13 subjects, 25 events): 54.2%
incidence of adverse events ([2]; all 24 subjects, 15 subjects, 29 events): 62.5%
subjects with grade 1 drug-related AEs (CTCAE5.0) ([2]; all subjects, nine subjects): 37.5%
subjects with grade 2 drug-related AEs (CTCAE5.0) ([2]; all subjects, seven subjects): 29.2%
subjects with grade 2 drug-related AEs (CTCAE5.0) ([2]; mild hepatic impairment group, 1 subject, decreased neutrophil count): 12.5%
subjects with grade 1 drug-related AEs (CTCAE5.0) ([2]; mild hepatic impairment group, 3 subjects): 37.5%
incidence of AEs related to the study drug ([2]; mild hepatic impairment group, 4 subjects, 5 events): 50.0%
subjects with grade 3 drug-related AEs (CTCAE5.0) ([2]; moderate hepatic impairment group, 1 subject): 12.5%
subjects with grade 1 drug-related AEs (CTCAE5.0) [2, 9]: 62.5%
subjects with grade 2 drug-related AEs (CTCAE5.0) [2, 9]: 62.5%
incidence of AEs related to the study drug ([2]; moderate hepatic impairment group, 7 subjects, 18 events): 87.5%
subjects with grade 1 drug-related AEs (CTCAE5.0) ([2]; normal liver function group, 1 subject): 25.0%
subjects with grade 2 drug-related AEs (CTCAE5.0) ([2]; normal liver function group, 1 subject, hypertriglyceridemia): 12.5%
incidence of AEs related to the study drug ([2]; normal liver function group, 2 subjects, 2 events): 25.0%
safety and tolerability ([2]; single oral dose, normal liver function, mild and moderate hepatic impairments): safe and well tolerated
platelet counts after administration compared to the baseline (platelet counts): trend towards higher platelet counts compared to the baseline
